“Also recorded” adds a separate entry of the source. Counter-ions that a name gives are not always drawn.
Test system: Grover's disease
Assay: Treatment of patients with Grover's disease (clinical study)
Assay type: in vivo, human
Conditions: three patients with Grover's disease; diet (no seafood) and chelation with Succimer 200-300 mg TID x 1-2 months
Source text: Fourteen patients with Grover's disease (ages 55-85) were randomly selected from a private dermatology practice. All patients were diagnosed using the following criteria: (1) complaints of pruritic eruption of the chest, abdomen or back; (2) physical exam showing discreet small (<2 mm) scattered erythematous scaly or crusted papules of chest, abdomen or back; (3) biopsy showing a superficial perivascular infiltrate of lymphocytes, suprabasal clefts and acantholytic cells. All patients gave verbal consent for a shave biopsy of a skin lesion and a blood test for mercury. Two were women and twelve were men.
Of the fourteen patients with Grover's disease, all had measurable blood mercury (mean—10 u/Liter). All patients complained of pruritus and were aware of skin lesions. All fourteen patients were treated with topical steroids without improvement.

O=C(O)[C@@H](S)[C@@H](S)C(=O)O [Succimer, 2,3-dimercaptosuccinic acid or salt thereof] was tested, and the “Effect of treatment on the cutaneous eruption of Grover's disease” value was “clearing of the eruption; also recorded: beneficial effect”.

Reference: US20060172951A1, “Age related macular degeneration and cutaneous signs of mercury toxicity” (priority 2005, published 2006)
